Assay results as given in patent US20220227735A1, “THERAPEUTIC METHODS AND COMPOUNDS” (RUTGERS, THE STATE UNIVERSITY OF NEW JERSEY, priority 2019, published 2022).
Where two headings read alike, the source gives them in different places.

Columns and labels:
human PKG (hPKG) = assay: Human PKG IMAP fluorescence polarization kinase assay; format: biochemical; conditions: compound at 10 μm; recombinant hPKG, 10 uM ATP, 1 uM cGMP, FAM-IP3R substrate
From the text: Human PKG, cloned into a pENTR221 vector, was obtained from DNASU.org. (HsCD00351766). It was cloned into a mammalian expression plasmid, Gateway pDEST27 (Invitrogen) for expression as a GST fusion protein, using LR Clonase II Plus enzyme (Invitrogen). The hPKG-pDEST27 plasmid was amplified in DH5a Max Efficiency Competent Cells and purified with a PureYield Plasmid Midiprep System (Promega) following the manufactures protocol. Expi293 cells were transfected with hPKG-pDEST27 using the Expifectamine 293 Transfection Kit (Gibco). After 18 hours, enhancing reagent (Gibco) was added. Cells were then collected 48 hours post-enhancing, centrifuged at 2000×g for 10 min, washed in ice cold PBS and frozen as a pellet at −80° C. until protein purification. The cell pellet was lysed with Mammalian Protein Extraction Reagent (Thermo Fisher) for 10-15 minutes. The lysate was centrifuged at 21,000×g for 15 minutes at 4° C. The supernatant was incubated for 1 h at 4° C. with glutathione resin that was pre-washed 10 times with ice cold Wash Buffer (50 mM Hepes pH 7.8, 120 mM KCl, 20 mM NaCl, 10% glycerol). The resin was loaded onto a column and washed with resin wash buffer by gravity flow until no more protein was detectable in the washes by Bradford assay. Protein was eluted with 10 mg/ml glutathione in Wash buffer. The protein was concentrated using a 30K MWCO Corning Spin X concentrator and assayed for activity as described above.
(§1) Plasmodium falciparum PKG (PfPKG) and human PKG (hPKG) kinase activity was assayed using a commercial immobilized metal ion affinity-based fluorescence polarization (IMAP) assay according to the manufactures protocol (Molecular Devices). Briefly, kinase assays (20 μl in black half volume 96 well microtiter plates) contained; 10 mM Tris-HCl, pH 7.2, 10 mM MgCl2, 0.05% NaN3, 0.01% Tween® 20, 10 uM ATP, 1 uM cGMP and 21 ng of recombinant enzyme per well. Compounds were preincubated with enzyme at 25° C. for 15 minutes and reactions were initiated with addition of 120 nM fluorescent peptide substrates, FAM-PKAtide for PfPKG and FAM-IP3R for hPKG (Molecular Devices). Fluorescent polarization was measured using a Synergy 2 Microplate reader (BioTek, Winooski, Vt.). Fluorescent polarization was read in parallel and perpendicular with an excitation wavelength of 485 nm and an emission wavelength of 528 nm. IC50 data were analyzed using a four parameter logistic curve fit using Microsoft Excel Solver.

[1] = target: T1, Plasmodium falciparum PKG (PfPKG) (Plasmodium falciparum, UniProt Q8I719); assay: PfPKG IMAP fluorescence polarization kinase assay; format: biochemical
T1 construct: Full length PfPKG was cloned into the pTrcHisC vector for expression in BL21 (DE3) Star cells; His tag (pTrcHisC vector) (N); made in house; host or cells: E. coli BL21 (DE3) Star
Description: Full length PfPKG was cloned into the pTrcHisC vector for expression in BL21 (DE3) Star cells. An LB culture containing 50 ug/ml carbenicillin (250 mL) was grown overnight at 37° C. The following day the culture was cooled on ice for about 10-15 minutes and divided equally into two new 125 mL cultures. 125 ml of fresh LB broth containing carbenicillin was added to each flask bringing the volume of each flask to 250 ml. Cultures were shaken at 18° C. before induction with IPTG (1.0 mM) for 18-24 h. The bacterial pellet was frozen at −80° C. until protein purification. Cells were lysed with Bacterial Protein Extraction Reagent (Thermo Scientific) on ice for 10-15 min. Supernatant was obtained after centrifugation of lysate at 21,000×g for 15 min at 4° C. Supernatant was incubated for 30 minutes at 4° C. with rotation with HisPur Cobalt Resin (Thermo Scientific), pre-washed with Wash Buffer (50 mM Hepes pH 7.8, 120 mM KCl, 20 mM NaCl, 10 mM Imidazole). Resin was added to a gravity column that was allowed to empty through gravity flow. The resin was washed with Wash buffer until no more protein is eluted off the column as determined by Bradford assay. A second wash was performed with Wash buffer containing 300 mM NaCl as in the previous wash step. Bound protein was eluted in 50 mM Hepes pH 7.8, 120 mM KCl, 20 mM NaCl, 250 mM Imidazole. Protein was dialyzed overnight in 50 mM Hepes pH 7.8, 120 mM KCl, 20 mM NaCl and 10% glycerol, with two buffer exchanges. Dialyzed protein was concentrated in a Corning Spin-X concentrator and assayed for activity using the IMAP FP Progressive Screening Expression kit (Molecular Devices, catalog #R8127) following the manufacturer's protocol.
as §1

[2] = recombinant PfPKG, 10 uM ATP, 1 uM cGMP, FAM-PKAtide substrate, read-out: PfPKG (μm)

T1 sequence (Q8I719 whole entry): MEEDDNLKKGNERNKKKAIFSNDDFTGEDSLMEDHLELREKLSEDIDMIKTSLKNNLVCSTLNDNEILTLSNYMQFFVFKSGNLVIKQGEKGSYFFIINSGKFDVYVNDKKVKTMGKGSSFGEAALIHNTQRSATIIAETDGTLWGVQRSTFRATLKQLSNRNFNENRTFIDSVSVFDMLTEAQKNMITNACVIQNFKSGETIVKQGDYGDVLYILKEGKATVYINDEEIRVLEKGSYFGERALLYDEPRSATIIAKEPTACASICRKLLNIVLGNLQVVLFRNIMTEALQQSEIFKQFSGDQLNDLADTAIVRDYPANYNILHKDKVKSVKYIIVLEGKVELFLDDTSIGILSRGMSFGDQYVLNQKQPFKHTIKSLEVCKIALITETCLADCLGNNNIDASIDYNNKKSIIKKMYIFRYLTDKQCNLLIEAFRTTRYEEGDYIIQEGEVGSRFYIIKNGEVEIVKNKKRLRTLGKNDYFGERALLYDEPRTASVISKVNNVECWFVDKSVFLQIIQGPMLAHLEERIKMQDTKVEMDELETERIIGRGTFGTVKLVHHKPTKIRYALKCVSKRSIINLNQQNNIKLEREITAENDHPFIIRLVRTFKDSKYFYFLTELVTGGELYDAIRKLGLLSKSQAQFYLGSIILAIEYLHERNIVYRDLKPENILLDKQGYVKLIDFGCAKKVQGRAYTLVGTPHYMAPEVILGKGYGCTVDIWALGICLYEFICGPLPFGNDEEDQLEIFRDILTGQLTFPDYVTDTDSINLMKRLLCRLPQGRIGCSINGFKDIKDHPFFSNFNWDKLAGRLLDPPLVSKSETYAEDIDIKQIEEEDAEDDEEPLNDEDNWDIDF

Structure (SMILES)	Human PKG (10 μm) (human PKG (hPKG))	IC50 [1, 2] [nM]	IC50 [1] [nM]	IC50 ([1]; read-out: PfPKG (μm), recombinant PfPKG, 10 uM ATP, 1 uM cGMP, FAM-PKAtide substrate) [nM]
CN1CCC(C)(c2cc(-c3ccncc3)c(-c3ccc(F)cc3)[nH]2)CC1 [Example 28, 4-(5-(1,4-dimethylpiperidin-4-yl)-2-(4-fluorophenyl)-1H-pyrrol-3-yl)pyridine]	29		< 1000	
CN1CCC(c2[nH]c(-c3ccc(F)cc3)c(-c3ccncc3)c2C#N)CC1 [Example 18, 5-(4-fluorophenyl)-2-(1-methylpiperidin-4-yl)-4-(pyridin-4-yl)-1H-pyrrole-3-carbonitrile]	57	< 1000		
CN1CCC(c2cc(-c3ccnc(Br)c3)c(-c3ccc(F)cc3)[nH]2)CC1 [Example 2, 2-bromo-4-(2-(4-fluorophenyl)-5-(1-methylpiperidin-4-yl)-1H-pyrrol-3-yl)pyridine]	60	< 1000		
CN1CCC(c2cc(-c3ccncc3CO)c(-c3ccc(F)cc3)[nH]2)CC1 [Example 6, (4-(2-(4-fluorophenyl)-5-(1-methylpiperidin-4-yl)-1H-pyrrol-3-yl)pyridin-3-yl)methanol]	−1	< 1000		
CN1C[C@@H]2C(c3cc(-c4ccncc4)c(-c4ccc(F)cc4)[nH]3)[C@@H]2C1 (stereo partly drawn) [Example 26, (1R,5S)-6-(5-(4-fluorophenyl)-4-(pyridin-4-yl)-1H-pyrrol-2-yl)-3-methyl-3-azabicyclo[3.1.0]hexane]	7	< 1000		
CN1CCC(c2cc(-c3ccncc3)c(-c3ccc(F)cc3)n2C)CC1 [Example 14, 4-(2-(4-fluorophenyl)-1-methyl-5-(1-methylpiperidin-4-yl)-1H-pyrrol-3-yl)pyridine]	14	< 1000		
Cc1cnccc1-c1cc(C2CCN(C)CC2)[nH]c1-c1ccc(F)cc1 [Example 3, 4-(2-(4-fluorophenyl)-5-(1-methylpiperidin-4-yl)-1H-pyrrol-3-yl)-3-methylpyridine]	45	< 1000		
CN1CCC(c2cc(-c3ccnc(C(N)=O)c3)c(-c3ccc(F)cc3)[nH]2)CC1 [Example 5, 4-(2-(4-fluorophenyl)-5-(1-methylpiperidin-4-yl)-1H-pyrrol-3-yl)picolinamide]	28	< 1000		
CN1CCC(c2cc(-c3ccncc3)c(-c3ccc(F)cc3)[nH]2)CC1 [TSP, 4-(2-(4-fluorophenyl)-5-(1-methylpiperidin-4-yl)-1H-pyrrol-3-yl)pyridine, reference compound]	59	< 1000		
C[C@@H]1CN(C)CC[C@H]1c1cc(-c2ccncc2)c(-c2ccc(F)cc2)[nH]1 (single isomer, unassigned) [Example 32, 4-(5-(trans-1,3-dimethylpiperidin-4-yl)-2-(4-fluorophenyl)-1H-pyrrol-3-yl)pyridine]	66			< 1000
C[C@H]1C[C@@H](c2cc(-c3ccncc3)c(-c3ccc(F)cc3)[nH]2)CCN1C (single isomer, unassigned) [Example 29, 4-(5-(cis-1,2-dimethylpiperidin-4-yl)-2-(4-fluorophenyl)-1H-pyrrol-3-yl)pyridine]	26	< 1000		
COc1ccc(-c2[nH]c(C3CCN(C)CC3)cc2-c2ccncc2)cc1 [Example 34, 4-(2-(4-methoxyphenyl)-5-(1-methylpiperidin-4-yl)-1H-pyrrol-3-yl)pyridine]	38	< 1000		
CCOC(=O)c1c(C2CCN(C)CC2)[nH]c(-c2ccc(F)cc2)c1-c1ccncc1 [Example 16, Ethyl 5-(4-fluorophenyl)-2-(1-methylpiperidin-4-yl)-4-(pyridin-4-yl)-1H-pyrrole-3-carboxylate]	18	< 1000		
CC(O)c1c(C2CCN(C)CC2)[nH]c(-c2ccc(F)cc2)c1-c1ccncc1 (stereo not shown) [Example 20, 1-(5-(4-fluorophenyl)-2-(1-methylpiperidin-4-yl)-4-(pyridin-4-yl)-1H-pyrrol-3-yl)ethan-1-ol]	3	< 1000		

Continued, in another order:

Human PKG (10 μm) (human PKG (hPKG))	IC50 [1, 2] [nM]	Structure (SMILES)	IC50 [1] [nM]	IC50 ([1]; read-out: PfPKG (μm), recombinant PfPKG, 10 uM ATP, 1 uM cGMP, FAM-PKAtide substrate) [nM]
0	< 1000	CNCc1c(C2CCN(C)CC2)[nH]c(-c2ccc(F)cc2)c1-c1ccncc1 [Example 23]		
52	< 1000	CN1CCC(c2[nH]c(-c3ccc(F)cc3)c(-c3ccncc3)c2Br)CC1 [Example 15, 4-(4-bromo-2-(4-fluorophenyl)-5-(1-methylpiperidin-4-yl)-1H-pyrrol-3-yl)pyridine]		
−4	< 1000	CC(O)c1cc(-c2cc(C3CCN(C)CC3)[nH]c2-c2ccc(F)cc2)ccn1 (stereo not shown) [Example 10, 1-(4-(2-(4-fluorophenyl)-5-(1-methylpiperidin-4-yl)-1H-pyrrol-3-yl)pyridin-2-yl)ethan-1-ol]		
12	< 1000	CN1CCC(c2[nH]c(-c3ccc(F)cc3)c(-c3ccncc3)c2CO)CC1 [Example 21, (5-(4-fluorophenyl)-2-(1-methylpiperidin-4-yl)-4-(pyridin-4-yl)-1H-pyrrol-3-yl)methanol]		
−8	< 1000	CN1CCC(c2[nH]c(-c3ccc(F)cc3)c(-c3ccncc3)c2C(N)=O)CC1 [Example 19, 5-(4-fluorophenyl)-2-(1-methylpiperidin-4-yl)-4-(pyridin-4-yl)-1H-pyrrole-3-carboxamide]		
	< 1000	C[C@H]1C[C@H](c2cc(-c3ccncc3)c(-c3ccc(F)cc3)[nH]2)CCN1C (single isomer, unassigned) [Example 30, 4-(5-(trans-1,2-dimethylpiperidin-4-yl)-2-(4-fluorophenyl)-1H-pyrrol-3-yl)pyridine]		
12	< 1000	CN1CCC(c2cc(-c3ccncc3C#N)c(-c3ccc(F)cc3)[nH]2)CC1 [Example 8, 4-(2-(4-fluorophenyl)-5-(1-methylpiperidin-4-yl)-1H-pyrrol-3-yl)nicotinonitrile]		
30	< 1000	Cc1cc(-c2cc(C3CCN(C)CC3)[nH]c2-c2ccc(F)cc2)ccn1 [Example 4, 4-(2-(4-fluorophenyl)-5-(1-methylpiperidin-4-yl)-1H-pyrrol-3-yl)-2-methylpyridine]		
−35	< 1000	CN1CCC(c2cc(-c3ccn4nnnc4c3)c(-c3ccc(F)cc3)[nH]2)CC1 [Example 12, 7-(2-(4-fluorophenyl)-5-(1-methylpiperidin-4-yl)-1H-pyrrol-3-yl)tetrazolo[1,5-a]pyridine]		
48	< 1000	CN1CCC(c2cc(-c3ccnc(N)c3)c(-c3ccc(F)cc3)[nH]2)CC1 [Example 7, 4-(2-(4-fluorophenyl)-5-(1-methylpiperidin-4-yl)-1H-pyrrol-3-yl)pyridin-2-amine]		
39	< 1000	CN1CCC(c2cc(-c3ccncc3Br)c(-c3ccc(F)cc3)[nH]2)CC1 [Example 1, 3-bromo-4-(2-(4-fluorophenyl)-5-(1-methylpiperidin-4-yl)-1H-pyrrol-3-yl)pyridine]		
